Several values for one entry are separate records, joined by “and”; a condition that tells them apart may be missing. Equal values may be shown once.

This assay is described as follows: Displacement of [3H](-)-cytisine from rat brain nicotinic acetylcholine receptors (nAChR).
With `Cc1cc([C@@H]2C[C@@H](CF)CN2C)on1`, the Ki – broadly, a measure of affinity in units of concentration, obtained from inhibition or displacement – came to 155 nM. The compound `Cc1cc([C@@H]2C[C@H](CO)CN2C)on1` (single isomer, unassigned) registered a Ki of 8140 nM. The same measure for `Cc1cc([C@H]2C[C@H](CF)CN2C)on1`: 16900 nM; for `Cc1cc([C@H]2CCCN2C)on1`: 7.4 nM; for `Cc1cc([C@H]2C[C@@H](CO)CN2C)on1`: 10900 nM. `Cc1cc([C@@H]2C[C@H](CF)CN2C)on1` returned a Ki of 1680 nM. This Ki lies about 6.5-fold lower than the previous one. The same measure for `Cc1cc([C@@H]2C[C@@H](C)CN2C)on1`: 19 nM; for `Cc1cc([C@H]2CC[C@H](C)N2C)on1`: 71 nM and 166 nM.

For the compound `Cc1cc([C@@H]2CCCN2C)on1` [ABT-418], the Ki was determined as 3 nM. The same measure for `Cc1cc([C@@H]2C[C@@H](CO)CN2C)on1`: 6650 nM; for `Cc1cc([C@H]2C[C@H](C)CN2C)on1`: 946 nM. The same measure for `Cc1cc([C@H]2C[C@H](CO)CN2C)on1`: 6040 nM.

These data come from ChEMBL document CHEMBL1128155, “Synthesis and structure-activity relationships of 2-(R) and (S) pyrrolidine-modified analogs of the cholinergic channel activator, ABT-418” (Bioorg Med Chem Lett, 1995).
